What all share (type): cell-based
For assay [1], the system named is MIA-PaCa-2 cells. Kind of assay: Anti-proliferative activity in MIA-PaCa-2 cells (CellTiter-Glo). The note with it: Homo sapiens, 72 h, MIA-PaCa-2 cells (KRAS G12C), three days, read-out: IC50 (cell viability). The protocol: MIA-PaCa-2 cells were treated with KRAS inhibitors at the density of 800 cells/well in 384-well plate for three days. Cell viability was evaluated using CellTiter-Glo® Luminescent Cell Viability Assay.

The subject of assay [2] is AGS cells. Kind of assay: Anti-proliferative activity in AGS cells (CellTiter-Glo). The note with it: Homo sapiens, 72 h, AGS cells (KRAS G12D), three days, read-out: IC50 (cell viability). The protocol:
AGS cells were treated with KRAS inhibitors at the density of 800 cells/well in 384-well plate for three days. Cell viability was evaluated using CelITiter-Glo® Luminescent Cell Viability Assay. […] AGS cells harbor KRAS G12D mutation. The improved antiproliferation effects of the compounds indicate stronger inhibition towards G12D mutation.
A general note: ATP-based viability assays read luminescence as a measure of living cells.

Assay [3] has as its system p-ERK in PC-9 cells (KRAS wild-type). Kind of assay: Downstream evaluation in PC-9 cells (p-ERK immunoblot). The following applies: Homo sapiens, 8 h and 24 h, read-out: inhibition of the downstream signaling measured by p-ERK. How it is done: PC-9 cells were treated with Compound 006 (DGY-12-161) in the 6-well plate at indicated concentrations for 8 h and 24 h, respectively. The intensities of the bands were quantified in LICOR Odyssey® CLx Imaging System. PC-9 cells are KRAS wild-type.
(In western blotting, separated proteins are transferred to a membrane and probed.)

The test system of assay [4] is downstream signaling (p-ERK) in PANC-1 cells (KRAS G12D). Kind of assay: Downstream evaluation in PANC-1 cells (p-ERK immunoblot). The note with it: Homo sapiens, 8 h and 24 h, read-out: IC50 of inhibition of downstream signaling. How it is done:
PANC-1 cells were treated with Compound 006 (DGY-12-161) in the 6-well plate at indicated concentrations for 8 h and 24 h, respectively. The intensities of the bands were quantified in LICOR Odyssey® CLx Imaging System. PANC-1 cells harbor KRAS G12D mutation.

The record followed here is patent US20250122210A1, “SMALL MOLECULE INHIBITORS OF KRAS G12D MUTANT” (DANA-FARBER CANCER INSTITUTE, INC., priority 2021, published 2025).

One may read the IC50 as the midpoint of a concentration-inhibition curve. On to `Oc1cc(-c2c(Cl)cc3c(N4[C@@H]5CC[C@H]4CNC5)nc(OCC45CCCN4CCC5)nc3c2F)c2ccccc2c1` [Compound 001, 4-(4-((1R,5S)-3,8-diazabicyclo[3.2.1]octan-8-yl)-6-chloro-8-fluoro-2-((tetrahydro-1H-pyrrolizin-7a(5H)-yl)methoxy)quinazolin-7-yl)naphthalen-2-ol], for which the results for the IC50 in assay [1] and in assay [2] were 2300 nM and 600 nM, respectively.
As a reminder, the inhibition is the percentage by which the read-out fell short of the control. Regarding `CN(C)C1CN(c2nc(N3[C@@H]4CC[C@H]3CNC4)c3cc(Cl)c(-c4cc(O)cc5ccccc45)c(F)c3n2)C1` [Compound 006, 4-(4-((1R,5S)-3,8-diazabicyclo[3.2.1]octan-8-yl)-6-chloro-2-(3-(dimethylamino)azetidin-1-yl)-8-fluoroquinazolin-7-yl)naphthalen-2-ol], the inhibition at 10 µM in assay [3] was about 50%. Besides, the values for the IC50 in assay [1], in assay [4] and in assay [2] were 2200 nM, under 10000 nM and 1400 nM, respectively.
